Measurements from PubChem BioAssay AID248 (DTP/NCI, 2004).
Where “and” joins values, the source holds several entries; their conditions need not be identical. Equal values may be shown once. Inconclusive results and toxic doses are left out. No stated cut-off is given here; in the data, active means T/C of 150% or more; inactive means T/C below 125%.

System: L1210 leukemia ip in BDF1 mice, survival T/C
Assay: NCI In Vivo Anticancer Drug Screen. Data for tumor model L1210 Leukemia (intraperitoneal) in B6D2F1 (BDF1) mice
Settings: endpoint: mean survival time, higher = longer survival
Summary of the method: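 Value reflects the ratio of survival in compound-treated mice to survival in vehicle-treated controls, with both groups carrying the same transplanted tumor.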

[1] = dose: 100.0 mg/kg/injection, schedule: Q01DX009 (ip), vehicle: saline with Tween-80
[2] = dose: 200.0 mg/kg/injection, schedule: Q01DX009 (ip), vehicle: saline with Tween-80
[3] = dose: 400.0 mg/kg/injection, schedule: Q01DX009 (ip), vehicle: saline with Tween-80
[4] = dose: 100.0 mg/kg/injection, schedule: Q04DX003 (ip), vehicle: saline with Tween-80

Measured: T/C

CCN(CC)CCC(=O)OC
inactive: dose: 50.0 mg/kg/injection, schedule: Q01DX001 (ip), vehicle: saline 97 % of control | dose: 100.0 mg/kg/injection, schedule: Q01DX001 (ip), vehicle: saline 100 % of control | dose: 200.0 mg/kg/injection, schedule: Q01DX001 (ip), vehicle: saline 100 % of control | dose: 400.0 mg/kg/injection, schedule: Q01DX001 (ip), vehicle: saline 97 % of control

O=C(Nc1ccccc1)C(Cl)Cl
inactive: [1] 96 % of control | [2] 91 % of control | [3] 96 % of control

CCOc1ccc(-n2c(=O)c(N=Nc3ccccc3C)c(O)n(-c3ccc(C)cc3)c2=S)cc1
inactive: dose: 37.5 mg/kg/injection, schedule: Q01DX001 (ip), vehicle: Klucel (hydroxypropylcellulose) (HPC) 92 % of control | dose: 75.0 mg/kg/injection, schedule: Q01DX001 (ip), vehicle: Klucel (hydroxypropylcellulose) (HPC) 101 % of control | dose: 150.0 mg/kg/injection, schedule: Q01DX001 (ip), vehicle: Klucel (hydroxypropylcellulose) (HPC) 97 % of control

Nc1cc(Cl)c2cccnc2c1O
inactive: dose: 50.0 mg/kg/injection, schedule: Q04DX003 (ip), vehicle: saline with Tween-80 88 % of control | dose: 75.0 mg/kg/injection, schedule: Q01DX001 (ip), vehicle: saline 98 % of control | [4] 100 % of control | dose: 150.0 mg/kg/injection, schedule: Q01DX001 (ip), vehicle: saline 96 % of control

COc1ccc(/C=C/C(=O)c2ccccc2)cc1
inactive: [1] 93 % of control and 101 % of control | [4] 93 % of control | [2] 95 % of control and 96 % of control | dose: 200.0 mg/kg/injection, schedule: Q04DX003 (ip), vehicle: saline with Tween-80 96 % of control | [3] 111 % of control and 91 % of control | dose: 400.0 mg/kg/injection, schedule: Q04DX003 (ip), vehicle: saline with Tween-80 104 % of control

Cc1ccc(C(=O)CC(C(=O)c2ccccc2)c2ccccc2)cc1 (stereo not given)
inactive: dose: 75.0 mg/kg/injection, schedule: Q01DX009 (ip), vehicle: Klucel (hydroxypropylcellulose) (HPC) 92 % of control | dose: 100.0 mg/kg/injection, schedule: Q04DX003 (ip), vehicle: Klucel (hydroxypropylcellulose) (HPC) 94 % of control | dose: 150.0 mg/kg/injection, schedule: Q01DX009 (ip), vehicle: Klucel (hydroxypropylcellulose) (HPC) 95 % of control | dose: 200.0 mg/kg/injection, schedule: Q04DX003 (ip), vehicle: Klucel (hydroxypropylcellulose) (HPC) 104 % of control | dose: 300.0 mg/kg/injection, schedule: Q01DX009 (ip), vehicle: Klucel (hydroxypropylcellulose) (HPC) 95 % of control | dose: 400.0 mg/kg/injection, schedule: Q04DX003 (ip), vehicle: Klucel (hydroxypropylcellulose) (HPC) 98 % of control

CCN(CC)CCC(C#N)(CC=C(C)C)c1cccc2ccccc12 (stereo not given)
inactive: dose: 12.5 mg/kg/injection, schedule: Q01DX009 (ip), vehicle: Klucel (hydroxypropylcellulose) (HPC) 100 % of control | dose: 25.0 mg/kg/injection, schedule: Q01DX009 (ip), vehicle: Klucel (hydroxypropylcellulose) (HPC) 110 % of control | dose: 50.0 mg/kg/injection, schedule: Q01DX009 (ip), vehicle: Klucel (hydroxypropylcellulose) (HPC) 97 % of control

O=C(COc1ccc(Cl)c(Cl)c1)Nc1ccc[n+](CC(=O)Nc2ccc(S(=O)(=O)F)cc2)c1
inactive: [1] 87 % of control | [2] 87 % of control | [3] 89 % of control

CNC(=O)Oc1ccc(C=Nc2cccc(Cl)c2)cc1
inactive: dose: 100.0 mg/kg/injection, schedule: Q04DX002 (ip), vehicle: Klucel (hydroxypropylcellulose) (HPC) 98 % of control | dose: 200.0 mg/kg/injection, schedule: Q04DX002 (ip), vehicle: Klucel (hydroxypropylcellulose) (HPC) 98 % of control | dose: 400.0 mg/kg/injection, schedule: Q04DX002 (ip), vehicle: Klucel (hydroxypropylcellulose) (HPC) 98 % of control
